The values that follow come from patent publication US6809096B1, “Phenanthroline-7-one derivatives and their therapeutic uses” (Laboratoire L. Lafon, priority 1999, dated 2004).

For test [1], the system named is 12 human cancer cell lines (U-373MG, U-87MG, SW1088, A549, A-427, HCT-15, LoVo, T-47D, MCF7, J82, T24, PC-3). The test is described as follows: Cytotoxic activity on tumour cell lines in culture (MTT test). The class given is cell-based. As to conditions: mean IC50 calculated from the individual cytotoxic activities on each of the 12 tumour lines, 72 hours incubation. As to the method: 1—Cytotoxic Activity on Tumour Cell Lines in Culture (MTT Test)
The influence of the compounds of formula (I) and of (Ia) on tumour cells was evaluated using the MTT calorimetric test (T. Mosman, J. Immunol. Methods, 1983; 65: 55-63, J. Carmichael et al., Cancer Res. 1987; 47: 936-942).
The principle of the MTT test is based on the mitochondrial reduction by metabolically active alive cells of the yellow-coloured product MTT (3-(4,5-dimethylthiazol-2-yl)-2,5-diphenyltetrazolium bromide) to a blue-coloured product, formazan. The amount of formazan thus obtained is directly proportional to the amount of live cells present in the culture well or wells. This amount of formazan is measured by spectrophotometry.
The cell lines are maintained in monolayer culture at 37° C. in stoppered culture dishes containing 25 MM HEPES MEM (Minimum Essential Medium) base medium. This medium is well suited to the growth of a range of varied diploid or primary mammalian cells. This medium is subsequently supplemented: […]
with an amount of 5% of FCS (Foetal Calf Serum) decomplemented at 56° C. for 1 hour, with 0.6 mg/ml of L-glutamine, with 200 IU/ml of penicillin, with 200 μg/ml of streptomycin, with 0.1 mg/ml of gentamicin.
The 12 human cancer cell lines which were used were obtained from the American Type Culture Collection (ATCC, Rockville, Md., USA). These 12 cell lines are:
U-373MG (ATCC code: HTB-17) and U-87MG (ATCC code: HTB-14), which are two glioblastomas, SW1088 (ATCC code: HTB-12) which is an astrocytoma, A549 (ATCC code: CCL-185) and A-427 (ATCC code: HTB-53), which are two non-small-cell lung cancers, HCT-15 (ATCC code: CCL-225) and LoVo (ATCC code: CCL-229), which are two colorectal cancers, T-47D (ATCC code: HTB-133) and MCF7 (ATCC code: HTB-22), which are two breast cancers, J82 (ATCC code: HTB-1) and T24 (ATCC code: […]), which are two bladder cancers, PC-3 (ATCC code: CRL-1435), which is a prostate cancer.
Experimentally: 100 μl of a cell suspension comprising 20 000 to 50 000 (depending on the cell type used) cells/ml of culture medium are inoculated in flat-bottomed 96-well multi-well plates and are incubated at 37° C. under an atmosphere comprising 5% of CO2 and 70% humidity. After incubating for 24 hours, the culture medium is replaced with 100 μl of fresh medium comprising either the various test compounds at concentrations varying from 10^−5 to 10^−10 M of the solvent used to dissolve the -test products (control condition). After incubating for 72 hours under the above conditions, the culture medium is replaced with 100 μl of a yellowish solution of MTT dissolved, in a proportion of 1 mg/ml, in RPMI 1640. The microplates are reincubated for 3 hours at 37° C. and then centrifuged for 10 minutes at 400 g. The yellowish MTT solution is removed and the blue formazan crystals formed at the cellular level are dissolved in 100 μl of DMSO. The microplates are subsequently agitated for 5 minutes. The intensity of the resulting blue coloration, and thus of the conversion of the yellow MTT product into blue formazan by the cells which are still alive at the end of the experiment, is quantified by spectrophotometry using a device of DYNATECH IMOASSAY SYSTEM type at wavelengths of 570 nm and 630 nm corresponding respectively to the maximum absorption wavelengths of formazan and to the background noise. Software built into the spectrophotometer calculates the mean optical density values and the standard deviation (Std. Dev.) and standard error of the mean (SEM) values.
The inhibitory activity on the cell growth of the compounds of formula (I) and (Ia) on the various tumour cell lines was measured in comparison with that of the natural product.

A further test has as its system HS-MXT tumours. The test can be described thus: In vivo antitumour activity, hormone-sensitive mouse mammary adenocarcinoma MXT (HS-MXT), tumour growth. To be noted: 5 mg/kg intraperitoneally; for Tumour area (expressed as %): decrease (−) or increase (+) in HS-MXT tumour area vs control on the 31st day after grafting, 9 administrations. As to the method: The tests were carried out on models of:
hormone-sensitive mouse mammary adenocarcinoma MXT (HS-MXT),
The model of mouse mammary adenocarcinoma MXT of Watson C. et al. (Cancer Res., 1977; […]: 3344-48), grafted onto B6D2F1/Jico mice aged from 4 to 6 weeks, is derived from the mammary gland milk ducts. Initially hormone-sensitive (HS-MXT model), the differentiated tumour develops in the direction of an undifferentiated hormone-insensitive tumour (HI-MXT model). […] This is the case, for example, with cyclophosphamide, etoposide or adriamycin.
When the MTD value of a product was determined, its in vivo antitumour activity was characterized at the MTD/2, MTD/4 and MTD/8 doses on the models of mammary adenocarcinoma of mouse origin HS-MXT and of mouse mammary carcinoma HI-MXT and on the model of subcutaneous lymphoma L 1210.
In all the examples presented below, whatever the model, the control condition is represented by a batch of 9 or 15 mice to which is administered, for 3 consecutive weeks and at the rate of 3 administrations (Monday, Wednesday and Friday) per week, a volume of 0.2 ml of physiological saline comprising the solvent used to dissolve the various compounds of formula (I) and (Ia) used.
i)—The tumour growth was evaluated by measuring twice weekly (Monday and Friday) the area of the grafted HS-MXT, HI-MXT or L 1210 tumours. This area is calculated by multiplying the value of the two greatest perpendicular axes of the tumour. The value of these axes is measured using a sliding caliper.
The influence of the two products CRL 8293 and CRL 8294 on the growth of HS-MXT tumours will be presented below by way of example. Each batch of mice grafted with the HS-MXT tumours relating to a given experimental condition comprises 9 animals.
The product CRL 8293 is administered intraperitoneally. The first injection of the product is carried out on the seventh day postgrafting (D7) at the rate of 3 injections per week (Monday, Wednesday and Friday) for 3 consecutive weeks and at a dose of 5 mg/kg.
The product CRL 8294 is administered alone by the intraperitoneal route. The first injection of the product is carried out on the seventh day postgrafting (D7) at the rate of 3 injections per week (Monday, Wednesday and Friday) for 3 consecutive weeks and at a dose of 5 mg/kg.
The decreases (−) or the increases (+) in the area of the HS-MXT tumours induced with treatments 10 and 20 with respect to the control condition on the 31st day after the tumour grafting, i.e. after the 9 administrations provided in the experimental protocol of the 2 products CRL 8293 and CRL 8294, are shown, as percentage, in the following Table IV. 100% of the control animals are still alive on the 31st day postgrafting.

Molecules are shown by their SMILES.

As usually defined, the IC50 is the midpoint of a concentration-inhibition curve.

Regarding `O=C1c2cccnc2-c2nccc3ccnc1c23` [CRL 8293, 7H-Pyrido[4,3,2-de][1,10]phenanthroline-7-one], the 50% inhibitory concentration (IC50) in test [1] (Homo sapiens) is 1250 nM. In the test with HS-MXT tumours, the “growth of the HS-MXT tumours (in words)” value is recorded as “very highly significant decrease” and the “Tumour area (expressed as %)” value is listed as −45%.

As for `O=C1c2ncccc2-c2nccc3ccnc1c23` [CRL 8294, 7H-Pyrido[4,3,2-de][1,7phenanthroline-7-one], in test [1], the concentration for half-maximal inhibition (IC50) was 1450 nM. In the test with HS-MXT tumours, the “growth of the HS-MXT tumours (in words)” value is given as “very highly significant decrease” and the “Tumour area (expressed as %)” value was −64%.
